ChEMBL document CHEMBL3272271, “Folate antagonists. 13. 2,4-Diamino-6-](alpha,alpha,alpha-trifluoro-m-tolyl)thio]quinazoline and related 2,4-diamino-6-[(phenyl- and naphthyl)thio]quinazolines, a unique class of antimetabolites with extraordinary antimalarial and antibacterial effects” (J Med Chem, 1978)
Values after ≈ are worked out from the molar mass of the structure shown. Active and inactive are the calls of the source. The rule behind the calls is not given here.

Experiments:
Plasmodium berghei [1] = experiment: Antimalarial activity against Plasmodium berghei infected in mouse assessed as disease cure from parasite infection at 640 mg/kg, sc administered 72 hrs after infection; assay type: functional, organism-based; parameters: dose 640 mg/kg
Escherichia coli = experiment: Antibacterial activity against Escherichia coli Vogel by gradient plate test; assay type: functional
Plasmodium gallinaceum [2] = experiment: Antimalarial activity against sporozoite-induced Plasmodium gallinaceum infected in white leghorn chicken assessed as disease cure from parasite infection at 15 mg/kg, sc administered 72 hrs after infection; assay type: functional, organism-based; parameters: dose 15 mg/kg
Shigella sonnei = experiment: Antibacterial activity against Shigella sonnei C-10 by gradient plate test; assay type: functional
Plasmodium gallinaceum [3] = experiment: Antimalarial activity against sporozoite-induced Plasmodium gallinaceum infected in white leghorn chicken assessed as increase in mean survival days of host at 30 mg/kg, sc administered 72 hrs after infection relative to control; assay type: functional; conditions: route subcutaneous
Plasmodium gallinaceum [4] = experiment: Antimalarial activity against sporozoite-induced Plasmodium gallinaceum infected in white leghorn chicken assessed as disease cure from parasite infection at 120 mg/kg, sc administered 72 hrs after infection; assay type: functional, organism-based; parameters: dose 120 mg/kg
Pseudomonas aeruginosa = experiment: Antibacterial activity against Pseudomonas aeruginosa 28 by gradient plate test; assay type: functional
Plasmodium berghei [5] = experiment: Antimalarial activity against Plasmodium berghei infected in mouse assessed as increase in mean survival days of host at 80 mg/kg, sc administered 72 hrs after infection relative to control; assay type: functional; conditions: route subcutaneous
Plasmodium berghei [6] = experiment: Antimalarial activity against Plasmodium berghei infected in mouse assessed as disease cure from parasite infection at 160 mg/kg, sc administered 72 hrs after infection; assay type: functional, organism-based; parameters: dose 160 mg/kg
Plasmodium berghei [7] = experiment: Antimalarial activity against Plasmodium berghei infected in mouse assessed as disease cure from parasite infection at 320 mg/kg, sc administered 72 hrs after infection; assay type: functional, organism-based; parameters: dose 320 mg/kg
Plasmodium berghei [8] = experiment: Antimalarial activity against Plasmodium berghei infected in mouse assessed as increase in mean survival days of host at 20 mg/kg, sc administered 72 hrs after infection relative to control; assay type: functional; conditions: route subcutaneous
Plasmodium gallinaceum [9] = experiment: Antimalarial activity against sporozoite-induced Plasmodium gallinaceum infected in white leghorn chicken assessed as disease cure from parasite infection at 60 mg/kg, sc administered 72 hrs after infection; assay type: functional, organism-based; parameters: dose 60 mg/kg
Plasmodium berghei [10] = experiment: Antimalarial activity against Plasmodium berghei infected in mouse assessed as increase in mean survival days of host at 10 mg/kg, sc administered 72 hrs after infection relative to control; assay type: functional; conditions: route subcutaneous
Staphylococcus aureus [11] = experiment: Antibacterial activity against drug-resistant Staphylococcus aureus S18713 by gradient plate test; assay type: functional
Enterococcus faecalis = experiment: Antibacterial activity against Streptococcus faecalis MGH-2 by gradient plate test; assay type: functional
Plasmodium berghei [12] = experiment: Antimalarial activity against Plasmodium berghei infected in mouse assessed as increase in mean survival days of host at 160 mg/kg, sc administered 72 hrs after infection relative to control; assay type: functional; conditions: route subcutaneous
Plasmodium berghei [13] = experiment: Antimalarial activity against Plasmodium berghei infected in mouse assessed as increase in mean survival days of host at 40 mg/kg, sc administered 72 hrs after infection relative to control; assay type: functional; conditions: route subcutaneous
Plasmodium gallinaceum [14] = experiment: Antimalarial activity against sporozoite-induced Plasmodium gallinaceum infected in white leghorn chicken assessed as increase in mean survival days of host at 15 mg/kg, sc administered 72 hrs after infection relative to control; assay type: functional; conditions: route subcutaneous
Plasmodium gallinaceum [15] = experiment: Antimalarial activity against sporozoite-induced Plasmodium gallinaceum infected in white leghorn chicken assessed as disease cure from parasite infection at 480 mg/kg, sc administered 72 hrs after infection; assay type: functional, organism-based; parameters: dose 480 mg/kg
Plasmodium gallinaceum [16] = experiment: Antimalarial activity against sporozoite-induced Plasmodium gallinaceum infected in white leghorn chicken assessed as disease cure from parasite infection at 30 mg/kg, sc administered 72 hrs after infection; assay type: functional, organism-based; parameters: dose 30 mg/kg
Plasmodium berghei [17] = experiment: Antimalarial activity against Plasmodium berghei infected in mouse assessed as increase in mean survival days of host at 5 mg/kg, sc administered 72 hrs after infection relative to control; assay type: functional; conditions: route subcutaneous
Plasmodium berghei [18] = experiment: Antimalarial activity against Plasmodium berghei infected in mouse assessed as disease cure from parasite infection at 80 mg/kg, sc administered 72 hrs after infection; assay type: functional, organism-based; parameters: dose 80 mg/kg
Plasmodium gallinaceum [19] = experiment: Antimalarial activity against sporozoite-induced Plasmodium gallinaceum infected in white leghorn chicken assessed as disease cure from parasite infection at 240 mg/kg, sc administered 72 hrs after infection; assay type: functional, organism-based; parameters: dose 240 mg/kg
Plasmodium berghei [20] = experiment: Antimalarial activity against Plasmodium berghei infected in mouse assessed as increase in mean survival days of host at 2.5 mg/kg, sc administered 72 hrs after infection relative to control; assay type: functional; conditions: route subcutaneous
Staphylococcus aureus [21] = experiment: Antibacterial activity against Staphylococcus aureus UC-96 by gradient plate test; assay type: functional
[22] = tested on: Mycobacterium tuberculosis; experiment: Antibacterial activity against Mycobacterium tuberculosis H37Ra by gradient plate test; assay type: functional
Plasmodium berghei [23] = experiment: Antimalarial activity against Plasmodium berghei infected in mouse assessed as disease cure from parasite infection at 40 mg/kg, sc administered 72 hrs after infection; assay type: functional, organism-based; parameters: dose 40 mg/kg
Mus musculus = experiment: Toxicity in Plasmodium berghei infected mouse assessed as mortality at 640 mg/kg, sc administered 72 hrs after infection measured after 2 to 5 days; assay type: organism-based; parameters: dose 640 mg/kg, route subcutaneous; conditions: in vivo

Nc1nc(N)c2cc(Sc3c(F)c(F)cc(F)c3F)ccc2n1 was tested, and the Activity (Plasmodium berghei [1]) was “Active”, the MIC (Escherichia coli) was 2 µg/mL (≈ 5.88 µM) and the Activity (Plasmodium gallinaceum [2]) was “Active”. The MIC (Shigella sonnei) was 15 µg/mL (≈ 44.1 µM), the MST (Plasmodium gallinaceum [3]) was 2.7 days and the Activity (Plasmodium gallinaceum [4]) was “Active”. The MIC (Pseudomonas aeruginosa) was > 25 µg/mL, the MST (Plasmodium berghei [5]) was 8.9 days and the Activity (Plasmodium berghei [6]) was “Active”. For the same molecule, the Activity (Plasmodium berghei [7]) was “Active”, the MST (Plasmodium berghei [8]) was 2.7 days and the Activity (Plasmodium gallinaceum [9]) was “Active”. The MST (Plasmodium berghei [10]) was 0.5 days, the MIC (Staphylococcus aureus [11]) was < 0.25 µg/mL and the MIC (Enterococcus faecalis) was < 0.25 µg/mL. The MST (Plasmodium berghei [12]) was 14.9 days, the MST (Plasmodium berghei [13]) was 6.1 days and the MST (Plasmodium gallinaceum [14]) was 1.7 days. The Activity (Plasmodium gallinaceum [15]) was “Active”, the Activity (Plasmodium gallinaceum [16]) was “Active” and the MST (Plasmodium berghei [17]) was 0.3 days. The Activity (Plasmodium berghei [18]) was “Active”, the Activity (Plasmodium gallinaceum [19]) was “Active” and the MST (Plasmodium berghei [20]) was 0.3 days. For the same molecule, the MIC (Staphylococcus aureus [21]) was < 0.25 µg/mL.

For Nc1nc(N)c2c(Cl)c(Sc3ccc(F)cc3)ccc2n1, the MIC [22] was 5 µg/mL (≈ 15.6 µM), the Activity (Plasmodium berghei [1]) was “Active” and the MIC (Escherichia coli) was < 0.25 µg/mL. For the same molecule, the Activity (Plasmodium berghei [23]) was “Active”, the MIC (Shigella sonnei) was < 0.25 µg/mL and the MIC (Pseudomonas aeruginosa) was > 25 µg/mL. The Activity (Mus musculus) was “Toxic”, the Activity (Plasmodium berghei [6]) was “Active” and the Activity (Plasmodium berghei [7]) was “Active”. For the same molecule, the MST (Plasmodium berghei [8]) was 6.9 days, the MIC (Staphylococcus aureus [11]) was < 0.25 µg/mL and the MIC (Enterococcus faecalis) was < 0.25 µg/mL. The MST (Plasmodium berghei [13]) was 15.6 days, the Activity (Plasmodium berghei [18]) was “Active” and the MIC (Staphylococcus aureus [21]) was < 0.25 µg/mL.
